Experimental data published in the supplement of paper PMC8149375.

How the values were obtained:
Conditions in all cases: treatment: drug + dasatinib (fixed dose, not stated); 5 days
[1] = tested on: 769-P; test: GI50 of drug in presence of dasatinib; higher = less potent
Experimental: (§1)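 Primary HTS combination arm: 8 RCC cell lines treated with 8 doses (up to 10 uM) of each library drug plus a fixed dose of dasatinib (dose not stated) for 5 days; viability read by CellTiter-Glo and normalised to DMSO. GI50 was fitted with XLfit, AUC is the area under the dose-response curve, and minimum viability is the lowest fraction of DMSO viability across doses.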

[2] = tested on: 786-O; test: as above
Experimental: as §1

[3] = tested on: A498; test: as above
Experimental: as §1

[4] = tested on: ACHN; test: as above
Experimental: as §1

[5] = tested on: CAKI-1; test: as above
Experimental: as §1

[6] = tested on: SN12C; test: as above
Experimental: as §1

[7] = tested on: TK-10; test: as above
Experimental: as §1

[8] = tested on: UO-31; test: as above
Experimental: as §1

[9] = tested on: 769-P; test: minimum viability across doses, drug + dasatinib, relative to DMSO (fraction); higher = less growth inhibition
Experimental: as §1

[10] = tested on: 786-O; test: as above
Experimental: as §1

[11] = tested on: A498; test: as above
Experimental: as §1

[12] = tested on: ACHN; test: as above
Experimental: as §1

[13] = tested on: CAKI-1; test: as above
Experimental: as §1

[14] = tested on: SN12C; test: as above
Experimental: as §1

[15] = tested on: TK-10; test: as above
Experimental: as §1

[16] = tested on: UO-31; test: as above
Experimental: as §1

[17] = tested on: 769-P; test: AUC of dose-response viability curve, drug + dasatinib, normalised to DMSO (arbitrary (AUC of normalised viability)); higher = less growth inhibition
Experimental: as §1

[18] = tested on: 786-O; test: as above
Experimental: as §1

[19] = tested on: A498; test: as above
Experimental: as §1

[20] = tested on: ACHN; test: as above
Experimental: as §1

[21] = tested on: CAKI-1; test: as above
Experimental: as §1

[22] = tested on: SN12C; test: as above
Experimental: as §1

[23] = tested on: TK-10; test: as above
Experimental: as §1

[24] = tested on: UO-31; test: as above
Experimental: as §1

COc1cc(Nc2ncc(F)c(Nc3ccc4c(n3)N(COP(=O)([O-])[O-])C(=O)C(C)(C)O4)n2)cc(OC)c1OC.[Na+].[Na+] + Cc1nc(Nc2ncc(C(=O)Nc3c(C)cccc3Cl)s2)cc(N2CCN(CCO)CC2)n1 [dasatinib]
GI50 of drug [1]: 1630 nM | GI50 of drug [2]: 419 nM | GI50 of drug [3]: > 10000 nM | GI50 of drug [4]: 68.7 nM | GI50 of drug [5]: 161 nM | GI50 of drug [6]: 793 nM | GI50 of drug [7]: 2070 nM | GI50 of drug [8]: 1580 nM | minimum viability across doses [9]: 0.0654 | minimum viability across doses [10]: 0.245 | minimum viability across doses [11]: 0.671 | minimum viability across doses [12]: 0.0433 | minimum viability across doses [13]: 0.00358 | minimum viability across doses [14]: 0.202 | minimum viability across doses [15]: 0.304 | minimum viability across doses [16]: 0.0117 | AUC of dose-response viability curve [17]: 2.15 | AUC of dose-response viability curve [18]: 1.78 | AUC of dose-response viability curve [19]: 3.45 | AUC of dose-response viability curve [20]: 1.48 | AUC of dose-response viability curve [21]: 1.52 | AUC of dose-response viability curve [22]: 2.03 | AUC of dose-response viability curve [23]: 2.17 | AUC of dose-response viability curve [24]: 2.8

CNC(=O)c1ccc(C)c(-n2c(C)cc(OCc3ccc(F)cc3F)c(Br)c2=O)c1 + Cc1nc(Nc2ncc(C(=O)Nc3c(C)cccc3Cl)s2)cc(N2CCN(CCO)CC2)n1 [dasatinib]
GI50 of drug [1]: > 10000 nM | GI50 of drug [2]: < 3 nM | GI50 of drug [3]: > 10000 nM | GI50 of drug [4]: 90.6 nM | GI50 of drug [5]: > 10000 nM | GI50 of drug [6]: > 10000 nM | GI50 of drug [7]: > 10000 nM | GI50 of drug [8]: > 10000 nM | minimum viability across doses [9]: 0.558 | minimum viability across doses [10]: 0.457 | minimum viability across doses [11]: 0.937 | minimum viability across doses [12]: 0.346 | minimum viability across doses [13]: 0.561 | minimum viability across doses [14]: 0.64 | minimum viability across doses [15]: 0.541 | minimum viability across doses [16]: 1.15 | AUC of dose-response viability curve [17]: 2.22 | AUC of dose-response viability curve [18]: 1.89 | AUC of dose-response viability curve [19]: 3.58 | AUC of dose-response viability curve [20]: 1.68 | AUC of dose-response viability curve [21]: 2.3 | AUC of dose-response viability curve [22]: 2.42 | AUC of dose-response viability curve [23]: 2.23 | AUC of dose-response viability curve [24]: 4.38

CCc1cccc(CC)c1NC(=O)N1Cc2[nH]nc(NC(=O)c3ccc(N4CCN(C)CC4)cc3)c2C1 + Cc1nc(Nc2ncc(C(=O)Nc3c(C)cccc3Cl)s2)cc(N2CCN(CCO)CC2)n1 [dasatinib]
GI50 of drug [1]: > 10000 nM | GI50 of drug [2]: 469 nM | GI50 of drug [3]: 2720 nM | GI50 of drug [4]: 566 nM | GI50 of drug [5]: 818 nM | GI50 of drug [6]: 641 nM | GI50 of drug [7]: 4610 nM | GI50 of drug [8]: 7530 nM | minimum viability across doses [9]: 0.565 | minimum viability across doses [10]: 0.0687 | minimum viability across doses [11]: 0.406 | minimum viability across doses [12]: 0.129 | minimum viability across doses [13]: 0.0817 | minimum viability across doses [14]: 0.117 | minimum viability across doses [15]: 0.319 | minimum viability across doses [16]: 0.31 | AUC of dose-response viability curve [17]: 2.4 | AUC of dose-response viability curve [18]: 1.79 | AUC of dose-response viability curve [19]: 2.74 | AUC of dose-response viability curve [20]: 1.88 | AUC of dose-response viability curve [21]: 1.89 | AUC of dose-response viability curve [22]: 1.9 | AUC of dose-response viability curve [23]: 2.43 | AUC of dose-response viability curve [24]: 3.44

CC(=O)NCC(=O)N1[C@H]2CC[C@H]1c1cc(Nc3ncc(C(F)(F)F)c(NC4CCC4)n3)ccc12 + Cc1nc(Nc2ncc(C(=O)Nc3c(C)cccc3Cl)s2)cc(N2CCN(CCO)CC2)n1 [dasatinib]
GI50 of drug [1]: 118 nM | GI50 of drug [2]: 18.1 nM | GI50 of drug [3]: 625 nM | GI50 of drug [4]: 24.1 nM | GI50 of drug [5]: 30.6 nM | GI50 of drug [6]: 128 nM | GI50 of drug [7]: 429 nM | GI50 of drug [8]: 711 nM | minimum viability across doses [9]: 0.028 | minimum viability across doses [10]: 0.0101 | minimum viability across doses [11]: 0.0199 | minimum viability across doses [12]: 0.0109 | minimum viability across doses [13]: 0.0773 | minimum viability across doses [14]: 0.0154 | minimum viability across doses [15]: 0.116 | minimum viability across doses [16]: 0.0156 | AUC of dose-response viability curve [17]: 1.61 | AUC of dose-response viability curve [18]: 0.86 | AUC of dose-response viability curve [19]: 2.34 | AUC of dose-response viability curve [20]: 1.17 | AUC of dose-response viability curve [21]: 1.11 | AUC of dose-response viability curve [22]: 1.47 | AUC of dose-response viability curve [23]: 1.83 | AUC of dose-response viability curve [24]: 2.3

CNC(=O)c1nn(C)c2c1C(C)(C)Cc1cnc(Nc3ccc(N4CCN(C)CC4)cc3)nc1-2 + Cc1nc(Nc2ncc(C(=O)Nc3c(C)cccc3Cl)s2)cc(N2CCN(CCO)CC2)n1 [dasatinib]
GI50 of drug [1]: 245 nM | GI50 of drug [2]: 35.5 nM | GI50 of drug [3]: 3470 nM | GI50 of drug [4]: 22 nM | GI50 of drug [5]: 38.8 nM | GI50 of drug [6]: 261 nM | GI50 of drug [7]: 137 nM | GI50 of drug [8]: 279 nM | minimum viability across doses [9]: 0.0274 | minimum viability across doses [10]: 0.00492 | minimum viability across doses [11]: 0.0243 | minimum viability across doses [12]: 0.0123 | minimum viability across doses [13]: 0.0344 | minimum viability across doses [14]: 0.0108 | minimum viability across doses [15]: 0.189 | minimum viability across doses [16]: 0.0113 | AUC of dose-response viability curve [17]: 1.77 | AUC of dose-response viability curve [18]: 1.35 | AUC of dose-response viability curve [19]: 3.23 | AUC of dose-response viability curve [20]: 1.03 | AUC of dose-response viability curve [21]: 1.11 | AUC of dose-response viability curve [22]: 1.71 | AUC of dose-response viability curve [23]: 1.63 | AUC of dose-response viability curve [24]: 2.02

Oc1ccc(-c2nc(-c3ccc(F)cc3)c(-c3ccncc3)[nH]2)cc1 + Cc1nc(Nc2ncc(C(=O)Nc3c(C)cccc3Cl)s2)cc(N2CCN(CCO)CC2)n1 [dasatinib]
GI50 of drug [1]: > 10000 nM | GI50 of drug [2]: > 10000 nM | GI50 of drug [3]: > 10000 nM | GI50 of drug [4]: 449 nM | GI50 of drug [5]: > 10000 nM | GI50 of drug [6]: > 10000 nM | GI50 of drug [7]: > 10000 nM | GI50 of drug [8]: > 10000 nM | minimum viability across doses [9]: 0.56 | minimum viability across doses [10]: 0.609 | minimum viability across doses [11]: 0.909 | minimum viability across doses [12]: 0.279 | minimum viability across doses [13]: 0.555 | minimum viability across doses [14]: 0.652 | minimum viability across doses [15]: 0.634 | minimum viability across doses [16]: 0.768 | AUC of dose-response viability curve [17]: 2.27 | AUC of dose-response viability curve [18]: 2.57 | AUC of dose-response viability curve [19]: 3.53 | AUC of dose-response viability curve [20]: 1.74 | AUC of dose-response viability curve [21]: 2.52 | AUC of dose-response viability curve [22]: 2.45 | AUC of dose-response viability curve [23]: 2.53 | AUC of dose-response viability curve [24]: 3.66

Cn1cc(C2=C(c3ccc(Cl)cc3Cl)C(=O)NC2=O)c2ccccc21 + Cc1nc(Nc2ncc(C(=O)Nc3c(C)cccc3Cl)s2)cc(N2CCN(CCO)CC2)n1 [dasatinib]
GI50 of drug [1]: 5290 nM | GI50 of drug [2]: > 10000 nM | GI50 of drug [3]: > 10000 nM | GI50 of drug [4]: > 10000 nM | GI50 of drug [5]: > 10000 nM | GI50 of drug [6]: > 10000 nM | GI50 of drug [7]: > 10000 nM | GI50 of drug [8]: 6210 nM | minimum viability across doses [9]: 0.288 | minimum viability across doses [10]: 0.587 | minimum viability across doses [11]: 0.929 | minimum viability across doses [12]: 0.548 | minimum viability across doses [13]: 0.562 | minimum viability across doses [14]: 0.642 | minimum viability across doses [15]: 0.532 | minimum viability across doses [16]: 0.191 | AUC of dose-response viability curve [17]: 2.36 | AUC of dose-response viability curve [18]: 2.55 | AUC of dose-response viability curve [19]: 3.8 | AUC of dose-response viability curve [20]: 2.2 | AUC of dose-response viability curve [21]: 0.956 | AUC of dose-response viability curve [22]: 2.53 | AUC of dose-response viability curve [23]: 2.74 | AUC of dose-response viability curve [24]: 3.15
